Source: patent US6262084A, “Compounds that inhibit the binding of integrins to their receptors” (Texas Biotechnology Corporation, priority 1999, dated 2001)

Target: T1, α4β1 integrin (Homo sapiens, UniProt P05556+P13612)
T1 construct: Ramos cells fluorescently labeled with calcein; endogenous in cells; host or cells: Ramos cells
Assay: Inhibition of adhesion of calcein-labeled Ramos cells to CS1 (fibronectin) peptide-conjugated ovalbumin
Format: cell-based
Conditions: for inhibition at 100 µM: Ramos, compound at a concentration of 100 μM, read-out: % A (percent inhibition of cell adhesion); for IC50: dose required to give 50% inhibition, Ramos cell adhesion to CS1-ovalbumin, 30 minutes at 37° C
Protocol: The ability of compounds of the present invention to inhibit binding is described in detail hereinafter in the Examples by a procedure in which a 26-amino acid peptide containing the CS1 sequence of fibroncctin with an N-terminal Cys was coupled to maleimide activated ovalbumin. Ovalbumin and CS1 conjugated ovalbumin were coated onto 96-well polystyrene plates at 5 μg/ml in TBS (50 mM Tris, pH 7.5; 150 mM NaCl) at 4° C. for 16 hours. The plates were washed three times with TBS and blocked with TBS containing 3% BSA at room temperature for 4 hours. Blocked plates were washed three times in binding buffer (TBS; 1 mM MgCl2; 1 mM CaCl2; 1 mM MnCl2) prior to assay. Ramos cells fluorescently labeled with calcein AMC-3099 were resuspended in binding buffer (10^7 cells/ml) and diluted 1:2 with same buffer with or without compound. The cells were added immediately to the wells (2.5×10^5 cells/well) and incubated for 30 minutes at 37° C. Following three washes with binding buffer, adherent cells were lysed and quantitated using a fluorometer.
IC50 is defined as the dose required to give 50% inhibition. The lower the IC50 value and the greater the percentage of inhibition, the more efficient the compound is at prevention of cell adhesion. A stands for inhibition in Table 1, and the percent inhibition indicates the inhibition of cell adhesion when compound is included in the assay at a concentration of 100 μM.

T1 sequence (P13612 34-1032): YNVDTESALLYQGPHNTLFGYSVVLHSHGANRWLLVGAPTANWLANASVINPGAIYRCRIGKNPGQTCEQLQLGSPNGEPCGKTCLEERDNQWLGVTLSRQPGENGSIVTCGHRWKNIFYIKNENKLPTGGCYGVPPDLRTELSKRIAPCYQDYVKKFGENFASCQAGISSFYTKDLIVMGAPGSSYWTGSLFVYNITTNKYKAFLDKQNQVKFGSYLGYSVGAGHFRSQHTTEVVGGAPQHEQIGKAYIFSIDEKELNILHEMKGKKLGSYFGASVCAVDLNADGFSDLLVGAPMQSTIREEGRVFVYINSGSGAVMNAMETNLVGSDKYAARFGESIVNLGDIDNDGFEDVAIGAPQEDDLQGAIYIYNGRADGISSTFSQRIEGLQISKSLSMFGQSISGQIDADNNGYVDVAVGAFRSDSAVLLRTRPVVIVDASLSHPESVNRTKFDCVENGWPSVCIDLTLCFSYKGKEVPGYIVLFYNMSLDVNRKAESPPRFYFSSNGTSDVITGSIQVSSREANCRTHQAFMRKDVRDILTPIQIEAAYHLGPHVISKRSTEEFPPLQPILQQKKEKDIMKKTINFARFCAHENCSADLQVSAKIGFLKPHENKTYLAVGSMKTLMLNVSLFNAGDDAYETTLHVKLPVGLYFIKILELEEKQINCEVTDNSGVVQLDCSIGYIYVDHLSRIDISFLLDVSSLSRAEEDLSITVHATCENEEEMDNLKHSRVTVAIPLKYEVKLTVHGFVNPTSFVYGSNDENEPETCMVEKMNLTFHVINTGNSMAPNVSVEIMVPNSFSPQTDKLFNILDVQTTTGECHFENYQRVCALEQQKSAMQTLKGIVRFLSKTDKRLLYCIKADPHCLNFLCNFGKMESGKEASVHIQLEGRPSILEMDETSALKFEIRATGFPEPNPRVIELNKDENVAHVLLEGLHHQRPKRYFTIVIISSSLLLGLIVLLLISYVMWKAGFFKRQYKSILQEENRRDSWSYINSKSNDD
T1 sequence (P05556 21-798): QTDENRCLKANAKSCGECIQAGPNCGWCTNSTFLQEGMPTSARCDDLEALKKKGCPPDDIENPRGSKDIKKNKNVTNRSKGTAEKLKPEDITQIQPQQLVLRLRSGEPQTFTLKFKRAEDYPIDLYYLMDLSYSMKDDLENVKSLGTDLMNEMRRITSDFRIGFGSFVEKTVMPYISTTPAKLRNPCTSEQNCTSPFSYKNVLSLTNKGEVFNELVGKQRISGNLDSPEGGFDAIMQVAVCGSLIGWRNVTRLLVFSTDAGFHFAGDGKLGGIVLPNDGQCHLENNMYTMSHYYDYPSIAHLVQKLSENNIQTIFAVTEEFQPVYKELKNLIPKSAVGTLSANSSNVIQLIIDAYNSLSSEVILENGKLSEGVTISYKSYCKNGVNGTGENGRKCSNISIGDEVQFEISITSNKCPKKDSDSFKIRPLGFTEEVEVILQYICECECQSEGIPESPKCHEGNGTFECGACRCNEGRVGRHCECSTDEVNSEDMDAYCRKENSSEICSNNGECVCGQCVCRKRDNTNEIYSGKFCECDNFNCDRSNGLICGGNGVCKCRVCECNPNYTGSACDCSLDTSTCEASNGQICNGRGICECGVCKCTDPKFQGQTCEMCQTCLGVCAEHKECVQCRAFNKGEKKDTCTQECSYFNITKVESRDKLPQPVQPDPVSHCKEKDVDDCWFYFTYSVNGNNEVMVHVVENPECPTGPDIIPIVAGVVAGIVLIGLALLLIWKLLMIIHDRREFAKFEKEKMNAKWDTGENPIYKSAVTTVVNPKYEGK

O=C(O)C[C@H](NC(=O)N[C@@H](CSCCCc1ccccc1)CSc1ccccc1)c1ccc2c(c1)OCO2 [(3S)-3-(1,3-benzodioxol-5-yl)-3-{[({(1S)-2-[(3-phenylpropyl)sulfanyl]-1-[(phenylsulfanyl)methyl]ethyl}amino)carbonyl]amino}propanoic acid]
inhibition at 100 µM (Table 1): 100% | IC50 (Table 1): 2000 nM

C=CCOC[C@@H](CSc1ccccc1)NC(=O)N[C@@H](CC(=O)O)c1ccc2c(c1)OCO2 [(3S)-3-{[({(1S)-2-(allyloxy)-1-[(phenylthio)methyl]ethyl}amino)carbonyl]amino}-3-(1,3-benzodioxol-5-yl)propanoic acid]
inhibition at 100 µM (Table 1): 100% | IC50 (Table 1): 300 nM

CSCC[C@@H](CSc1cccc(NC(=O)Nc2ccccc2C)c1)NC(=O)N[C@@H](CC(=O)O)c1ccc2c(c1)OCO2 [(3S)-3-(1,3-benzodioxol-5-yl)-3-{[({(1S)-3-(methylsulfanyl)-1-[({3-[(2-toluidinocarbonyl)amino]phenyl}sulfanyl)methyl]propyl}amino)carbonyl]amino}propanoic acid]
inhibition at 100 µM (Table 1): 100% | IC50 (Table 1): 2 nM

O=C(O)C[C@H](NC(=O)N[C@@H](CCCCNC(=O)OCc1ccccc1)C(=O)NCCc1ccccn1)c1ccc2c(c1)OCO2 [(9S,13S)-13-(1,3-benzodioxol-5-yl)-3,11-dioxo-1-phenyl-9-({[2-(2-pyridinyl)ethyl]amino}carbonyl)-2-oxa-4,10,12-triazapentadecan-15-oic acid]
inhibition at 100 µM (Table 1): 100% | IC50 (Table 1): 2000 nM

COC(=O)NCCCC[C@H](NC(=O)N[C@@H](CC(=O)O)c1ccc2c(c1)OCO2)C(=O)NCc1ccc(OC)c(O)c1 [(9S,13S)-13-(1,3-benzodioxol-5-yl)-9-{[(3-hydroxy-4-methoxybenzyl)amino]carbonyl}-3,11-dioxo-2-oxa-4,10,12-triazapentadecan-15-oic acid]
inhibition at 100 µM (Table 1): 100% | IC50 (Table 1): 200 nM

CCCC[C@@H](CSc1ccccc1)NC(=O)N[C@@H](CC(=O)O)c1ccc2c(c1)OCO2 [(3S)-3-(1,3-benzodioxol-5-yl)-3-{[({(1S)-1-[(phenylsulfanyl)methyl]pentyl}amino)carbonyl]amino}propanoic acid]
inhibition at 100 µM (Table 1): 100% | IC50 (Table 1): 400 nM

CCCC[C@H](NC(=O)N[C@@H](CC(=O)O)c1ccc2c(c1)OCO2)C(=O)NCc1ccc(NS(=O)(=O)c2cccs2)cc1 [Compound 42, 3(3S)-3-(1,3-benzodioxol-5-yl)-3-([((1S)-1-[(4-(2-thienylsulfonamido)benzyl)amino]carbonylpentyl)amino]carbonylamino)propanoic acid]
IC50 (Table 2): 60 nM

COC(=O)NCCCC[C@H](NC(=O)N[C@@H](CC(=O)O)c1ccc2c(c1)OCO2)C(=O)NCc1ccc(N(Cc2ccccc2C)Cc2ccccc2C)cc1 [(9S,13S)-13-(1,3-benzodioxol-5-yl)-9-[({4-bis(2-methylbenzyl)amino]benzyl}amino)carbonyl]-3,11-dioxo-2-oxa-4,10,12-triazapentadecan-15-oic acid]
inhibition at 100 µM (Table 1): 95% | IC50 (Table 1): 1000 nM

CSCC[C@@H](CSc1ccccc1N)NC(=O)N[C@@H](CC(=O)O)c1ccc2c(c1)OCO2 [(3S)-3-[({[(1S)-1-{[(2-aminophenyl)sulfanyl]methyl}-3-(methylsulfanyl)propyl]amino}carbonyl)amino]-3-(1,3-benzodioxol-5-yl)propanoic acid]
inhibition at 100 µM (Table 1): 100% | IC50 (Table 1): 300 nM

CC(C)C(NC(=O)N[C@@H](CC(=O)O)c1ccc2c(c1)OCO2)C(Sc1ccccc1)Sc1ccccc1 (stereo partly drawn) [(3S)-3-[({[1-{[bis-(phenylsulfanyl)]methyl}-2-methylpropyl]amino}carbonyl)amino]-3-[(3,4-methylenedioxy)phenyl]propanoic acid]
inhibition at 100 µM (Table 1): 95% | IC50 (Table 1): 35000 nM

CCCS(=O)(=O)Nc1cccc(SC[C@H](CCSC)NC(=O)N[C@@H](CC(=O)O)c2ccc3c(c2)OCO3)c1 [(3S)-3-(1,3-benzodioxol-5-yl)-3-{[({(1S)-3-(methylthio)-1-[({3-[(propylsulfonyl)amino]phenyl}thio)methyl]propyl}amino)carbonyl]amino}propanoic acid]
inhibition at 100 µM (Table 1): 100% | IC50 (Table 1): 500 nM

CSCC[C@@H](CSc1ccccc1)NC(=O)NCCC(=O)O [3-{[({(1S)-3-(methylsulfanyl)-1-[(phenylsulfanyl)methyl]propyl}amino)carbonyl]amino}propanoic acid]
inhibition at 100 µM (Table 1): 96% | IC50 (Table 1): 25000 nM

O=C(O)C[C@H](NC(=O)N[C@@H](CCSc1ccccc1)CSc1ccccc1)c1ccc2c(c1)OCO2 [(3S)-3-(1,3-benzodioxol-5-yl)-3-{[({(1S)-3-(phenylthio)-1-[(phenylthio)methyl]propyl}amino)carbonyl]amino}propanoic acid]
inhibition at 100 µM (Table 1): 100% | IC50 (Table 1): 300 nM

CSCC[C@@H](CSc1ccc(NS(=O)(=O)c2ccc(C)cc2)cc1)NC(=O)N[C@@H](CC(=O)O)c1ccc2c(c1)OCO2 [(3S)-3-(1,3-benzodioxol-5-yl)-3-[({[(1S)-1-{[(4-{[(4-methylphenyl)sulfonyl]amino}phenyl)sulfanyl]methyl}-3-(methylsulfanyl)propyl]amino}carbonyl)amino]propanoic acid]
inhibition at 100 µM (Table 1): 100% | IC50 (Table 1): 400 nM

CSCC[C@@H](CSc1ccccc1)NC(=O)N[C@@H](CC(=O)O)c1ccc2c(c1)OCO2 [(3S)-3-(1,3-benzodioxol-5-yl)-3-(((((1S)-3-(methylsulfanyl)-1-((phenylsulfanyl)methyl)propyl)amino)carbonyl)amino)propanoic acid]
inhibition at 100 µM (Table 1): 100% | IC50 (Table 1): 300 nM

CSCC[C@@H](CSc1ccc(Cl)cc1)NC(=O)N[C@@H](CC(=O)O)c1ccc2c(c1)OCO2 [(3S)-3-(1,3-benzodioxol-5-yl)-3-[({[(1S)-1-{[(4-chlorophenyl)sulfanyl]methyl}-3-(methylsulfanyl)propyl]amino}carbonyl)amino]propanoic acid]
inhibition at 100 µM (Table 1): 100% | IC50 (Table 1): 3000 nM

COC(=O)NCCCC[C@H](NC(=O)N[C@@H](CC(=O)O)c1ccc2c(c1)OCO2)C(=O)NCc1nc2ccccc2[nH]1 [(9S,13S)-9-{[(1H-benzimidazol-2-ylmethyl)amino]carbonyl}-13-(1,3-benzodioxol-5-yl)-3,11-dioxo-2-oxa-4,10,12-triazapentadecan-15-oic acid]
inhibition at 100 µM (Table 1): 100% | IC50 (Table 1): 2000 nM

CSCC[C@@H](CSc1ccc(NCc2ccccc2C)cc1)NC(=O)N[C@@H](CC(=O)O)c1ccc2c(c1)OCO2 [(3S)-3-(1,3-benzodioxol-5-yl)-3-[({[(1S)-1-[({4-[(2-methylbenzyl)amino]phenyl}thio)methyl]-3-(methylthio)propyl]amino}carbonyl)amino]propanoic acid]
inhibition at 100 µM (Table 1): 93% | IC50 (Table 1): 2000 nM

CCCCC(CSc1ccccc1)OC(=O)N[C@@H](CC(=O)O)c1ccc2c(c1)OCO2 (stereo partly drawn) [(3S)-3-(1,3-benzodioxol-5-yl)-3-{[({1-[(phenylsulfanyl)methyl]pentyl}oxy)carbonyl]amino}propanoic acid]
inhibition at 100 µM (Table 1): 100% | IC50 (Table 1): 6000 nM

CCCC[C@H](NC(=O)N[C@@H](CC(=O)O)c1ccc2c(c1)OCO2)C(=O)NCc1ccc(NCc2cccs2)cc1 [Compound 37, 3-(3S)-3-(1,3-benzodioxol-5-yl)-3-([((1S)-1-[(4-(2-thienylmethyl)aminobenzyl)amino]carbonylpentyl)amino]carbonylamino)propanoic acid]
IC50 (Table 2): 30 nM

CSCC[C@@H](CSc1ccccc1)NC(=O)N[C@H](CSC)CC(=O)O [(3S)-4-(methylsulfanyl)-3-{[({(1S)-3-(methylsulfanyl)-1-[(phenylsulfanyl)methyl]propyl}amino)carbonyl]amino}butanoic acid]
inhibition at 100 µM (Table 1): 99% | IC50 (Table 1): 8000 nM

CCCC[C@H](NC(=O)N[C@@H](CC(=O)O)c1ccc2c(c1)OCO2)C(=O)NCc1ccc(NCc2cccc(C)n2)cc1 [Compound 43]
IC50 (Table 2): 120 nM

CSCC[C@@H](CSc1ccccc1)N(C)C(=O)N[C@@H](CC(=O)O)c1ccc2c(c1)OCO2 [(3S)-3-(1,3-benzodioxol-5-yl)-3-{[(methyl{(1S)-3-(methylsulfanyl)-1-[(phenylsulfanyl)methyl]propyl}amino)carbonyl]amino}propanoic acid]
inhibition at 100 µM (Table 1): 78% | IC50 (Table 1): 35000 nM

O=C(O)C[C@H](NC(=O)N[C@@H](CCCCNC(=O)OCc1ccccc1)C(=O)NCCCN1CCCC1=O)c1ccc2c(c1)OCO2 [(9S,13S)-13-(1,3-benzodioxol-5-yl)-3,11-dioxo-9-({[3-(2-oxo-1-pyrrolidinyl)propyl]amino}carbonyl)-1-phenyl-2-oxa-4,10,12-triazapentadecan-15-oic acid]
inhibition at 100 µM (Table 1): 100% | IC50 (Table 1): 3000 nM

O=C(O)C[C@H](NC(=O)N[C@@H](CCCCNC(=O)OCc1ccccc1)C(=O)NCCc1ccc(O)cc1)c1ccc2c(c1)OCO2 [(9S,13S)-13-(1,3-benzodioxol-5-yl)-9-{[(4-hydroxyphenethyl)amino]carbonyl}-3,11-dioxo-1-phenyl-2-oxa-4,10,12-triazapentadecan-15-oic acid]
inhibition at 100 µM (Table 1): 100% | IC50 (Table 1): 2000 nM

CCCC[C@H](NC(=O)N[C@@H](CC(=O)O)c1ccc2c(c1)OCO2)C(=O)NCc1ccc(NCc2ccccc2C)cc1 [Compound 39]
IC50 (Table 2): 50 nM
